Reference: paper PMC7392018, “A general-purpose Nanohybrid fabricated by Polymeric Au(I)-peptide precursor to wake the function of Peptide Therapeutics” (Theranostics, 2020)

Key:
chymotrypsin = assay: Proteolysis resistance to chymotrypsin by HPLC; assay type: in vitro ADME; details: chymotrypsin with 10% serum in PBS, PBS containing 10 mM oxidized glutathione, 0.5 mg/ml chymotrypsin, read-out: t1/2 of proteolysis (converted)
Description: Figure 3 The colloidal peptide-auric SNH is stable and proteolytically resistant. (A) The physicochemical properties of the three peptide and the schematic diagram of three peptide-Auric SNH. (B-D) The dimensional change of Pep-AuNPs and Pep-Au SNH with time in PBS (pH7.4) or PBS including 20% FBS and 50 µM GSH to simulate extracellular physiological environment. (E-G) Proteolysis resistance of Pep-SH, Pep-AuNPs and Pep-Au SNH under PBS containing 10 mM oxidized glutathione, 10% serum, and 0.5 mg/ml chymotrypsin.
Linear peptides are conformationally disordered in aqueous solutions under their own steam and, consequently, tendentious to proteolysis. Conjugation of peptides with nanoparticles would improve steric hindrance against peptidase, resulting in the resistance to proteolysis, [44]. We comparatively quantified the susceptibility of Pep-AuNPs and Pep-Au SNH to chymotrypsin using HPLC (Figure 3E-G).
Fi g u re S 9. (A) The dimensional change of PMI- Au SNH with time in PBS or PBS including 20%
FBS and 50μM GSH at pH 7.4 or 4.0 to simulate extracellular physiological environment. ( B)
Proteolysis resistance of Pep-Au SNH under PBS at pH 7.4 or 4.0 containing 10 mM oxidized
glutathione, 10% serum, and 0.5 mg/ml chymotrypsin. (C) ICP- MS quantification of gold content
(from PMI- Au SNH) in stomach, colon and blood collected from health c57/b6 mice. The data […]

In vivo toxicity study = details: 2.5 mg/kg every other day for 12 days, HCT116 xenograft mice; PMI-Au SNH intraperitoneally, intravenously or intragastrically
Description: To evaluate the toxicity of PMI-Au SNH including the nephrotoxicity in vivo, we carried out a comprehensive toxicity study using the subcutaneous xenograft model of HCT116 tumors from efficacy studies. PMI-Au SNH was intraperitoneally, intravenously or intragastrically injected, every other day for a duration of 12 days, at a dose of 2.5 mg/kg, with saline, ^ctrlPMI-Au SNH and DOX as controls. […] The safety of both PMI-Au SNH and ^ctrlPMI-Au SNH and toxicity of DOX were further confirmed by changes, or lack thereof, in the function of the liver and kidney (Figure 9A-G), in the weight and H&E staining of spleen (Figure 9H-I) and in the number of white blood cells and thrombocytes (Figure S11). Moreover, heart function (Figure S12), the level of red blood cells (Figure S13) and the histological H&E staining of lung (Figure S14) supported the above findings and the conclusion that PMI-Au SNH is sufficiently safe with a significant therapeutic potential. […]
intense staining. […]
To assess potential toxicities of repeatedly infusing PMI-Au SNH, we monitored body weight of all mice over the course of treatment and measured hematological indexes as well as organ function indexes after 13- day treatment. […]

Row | half-life (chymotrypsin) [min] | SMILES | body weight change (In vivo toxicity study)
1 | 9 ± 0.6 | CC(=O)N[C@H](C(=O)N[C@@H](CO)C(=O)N[C@@H](Cc1ccccc1)C(=O)N[C@@H](C)C(=O)N[C@@H](CCC(=O)O)C(=O)N[C@@H](Cc1ccc(O)cc1)C(=O)N[C@@H](Cc1c[nH]c2ccccc12)C(=O)N[C@@H](C)C(=O)N[C@@H](CC(C)C)C(=O)N[C@@H](CC(C)C)C(=O)N[C@@H](CO)C(=O)N1CCC[C@H]1C(=O)N[C@@H](CS)C(=O)O)[C@@H](C)O [PMI-SH] | 
2 |  | COc1cccc2c1C(=O)c1c(O)c3c(c(O)c1C2=O)C[C@@](O)(C(=O)CO)C[C@@H]3O[C@H]1C[C@H](N)[C@H](O)[C@H](C)O1 [DOX, doxorubicin] | significant loss of body weight
